Results taken from the supplement of paper PMC8882468.

Test system: HCI-024 (organoid from a breast cancer xenograft)
Assay: CTG-3D luminescence at 96 h relative to day-0 seeding control (ratio to day 0); higher = more growth / less cytotoxicity; PDxO 3D drug screen (set 2), 96 h, CTG-3D normalised to day-0 seeding control.
Settings: 0.005 µM; days in culture: 231

Compared with C[C@@H](Nc1cc(F)cc(F)c1)c1cc(C(=O)N(C)C)cc2c(=O)cc(N3CCOCC3)oc12 [AZD-8186], Cc1c(CN2CCN(C(=O)[C@H](C)O)CC2)sc2c(N3CCOCC3)nc(-c3cnc(N)nc3)nc12 [apitolisib] is higher in “CTG-3D luminescence at 96 h” value: 1.21 for the first, 1.23 for the second.

Going from CC(=O)c1c(C)c2cnc(Nc3ccc(N4CCNCC4)cn3)nc2n(C2CCCC2)c1=O [palbociclib] to Nc1cc(C(F)(F)F)c(-c2cc(N3CCOCC3)nc(N3CCOCC3)n2)cn1 [buparlisib], the “CTG-3D luminescence at 96 h” value falls from 1.34 to 0.905.

Compared with CS(=O)(=O)CCNCc1ccc(-c2ccc3ncnc(Nc4ccc(OCc5cccc(F)c5)c(Cl)c4)c3c2)o1 [lapatinib], CCOc1ccn(-c2ccc(F)cc2)c(=O)c1C(=O)Nc1ccc(Oc2ccnc(N)c2Cl)c(F)c1 [ASLAN002] is higher in “CTG-3D luminescence at 96 h” value: 1.07 for the first, 1.13 for the second.

Same assay, conditions: 0.005 µM; days in culture: 254

Going from CC(C)n1nc(-c2ccc3oc(N)nc3c2)c2c(N)ncnc21 [sapanisertib] to Cc1c(CN2CCN(C(=O)[C@H](C)O)CC2)sc2c(N3CCOCC3)nc(-c3cnc(N)nc3)nc12 [apitolisib], the “CTG-3D luminescence at 96 h” value falls from 1.25 to 0.856.

Going from C[C@@H](Nc1cc(F)cc(F)c1)c1cc(C(=O)N(C)C)cc2c(=O)cc(N3CCOCC3)oc12 [AZD-8186] to Nc1cc(C(F)(F)F)c(-c2cc(N3CCOCC3)nc(N3CCOCC3)n2)cn1 [buparlisib], the “CTG-3D luminescence at 96 h” value falls from 1.81 to 0.779.

Going from CC(=O)c1c(C)c2cnc(Nc3ccc(N4CCNCC4)cn3)nc2n(C2CCCC2)c1=O [palbociclib] to CCOc1ccn(-c2ccc(F)cc2)c(=O)c1C(=O)Nc1ccc(Oc2ccnc(N)c2Cl)c(F)c1 [ASLAN002], the “CTG-3D luminescence at 96 h” value rises from 0.864 to 0.968.

For CS(=O)(=O)CCNCc1ccc(-c2ccc3ncnc(Nc4ccc(OCc5cccc(F)c5)c(Cl)c4)c3c2)o1 [lapatinib], the “CTG-3D luminescence at 96 h” value was 1.64.

Same assay, conditions: 0.1 µM; days in culture: 202

Compared with CC(C)n1nc(-c2ccc3oc(N)nc3c2)c2c(N)ncnc21 [sapanisertib], Cc1c(CN2CCN(C(=O)[C@H](C)O)CC2)sc2c(N3CCOCC3)nc(-c3cnc(N)nc3)nc12 [apitolisib] is higher in “CTG-3D luminescence at 96 h” value: 0.616 for the first, 1.17 for the second.

First: C[C@@H](Nc1cc(F)cc(F)c1)c1cc(C(=O)N(C)C)cc2c(=O)cc(N3CCOCC3)oc12 [AZD-8186]
Second: Nc1cc(C(F)(F)F)c(-c2cc(N3CCOCC3)nc(N3CCOCC3)n2)cn1 [buparlisib]
The “CTG-3D luminescence at 96 h” value of the first is lower: 1.33 for the first, 1.75 for the second.

Compared with CC(=O)c1c(C)c2cnc(Nc3ccc(N4CCNCC4)cn3)nc2n(C2CCCC2)c1=O [palbociclib], CCOc1ccn(-c2ccc(F)cc2)c(=O)c1C(=O)Nc1ccc(Oc2ccnc(N)c2Cl)c(F)c1 [ASLAN002] is higher in “CTG-3D luminescence at 96 h” value: 1.26 for the first, 1.27 for the second.

In the case of CS(=O)(=O)CCNCc1ccc(-c2ccc3ncnc(Nc4ccc(OCc5cccc(F)c5)c(Cl)c4)c3c2)o1 [lapatinib], the “CTG-3D luminescence at 96 h” value is reported as 0.838.

Same assay, conditions: 0.1 µM; days in culture: 231

Going from CC(C)n1nc(-c2ccc3oc(N)nc3c2)c2c(N)ncnc21 [sapanisertib] to Cc1c(CN2CCN(C(=O)[C@H](C)O)CC2)sc2c(N3CCOCC3)nc(-c3cnc(N)nc3)nc12 [apitolisib], the “CTG-3D luminescence at 96 h” value rises from 0.69 to 1.04.

First: C[C@@H](Nc1cc(F)cc(F)c1)c1cc(C(=O)N(C)C)cc2c(=O)cc(N3CCOCC3)oc12 [AZD-8186]
Second: Nc1cc(C(F)(F)F)c(-c2cc(N3CCOCC3)nc(N3CCOCC3)n2)cn1 [buparlisib]
The “CTG-3D luminescence at 96 h” value of the first is lower: 1.01 for the first, 1.7 for the second.

Compared with CC(=O)c1c(C)c2cnc(Nc3ccc(N4CCNCC4)cn3)nc2n(C2CCCC2)c1=O [palbociclib], CCOc1ccn(-c2ccc(F)cc2)c(=O)c1C(=O)Nc1ccc(Oc2ccnc(N)c2Cl)c(F)c1 [ASLAN002] is higher in “CTG-3D luminescence at 96 h” value: 0.956 for the first, 1.05 for the second.

In the case of CS(=O)(=O)CCNCc1ccc(-c2ccc3ncnc(Nc4ccc(OCc5cccc(F)c5)c(Cl)c4)c3c2)o1 [lapatinib], the “CTG-3D luminescence at 96 h” value is reported as 1.57.

Same assay, conditions: 0.1 µM; days in culture: 254

Compared with CC(C)n1nc(-c2ccc3oc(N)nc3c2)c2c(N)ncnc21 [sapanisertib], Cc1c(CN2CCN(C(=O)[C@H](C)O)CC2)sc2c(N3CCOCC3)nc(-c3cnc(N)nc3)nc12 [apitolisib] is higher in “CTG-3D luminescence at 96 h” value: 1.1 for the first, 2.4 for the second.

Going from C[C@@H](Nc1cc(F)cc(F)c1)c1cc(C(=O)N(C)C)cc2c(=O)cc(N3CCOCC3)oc12 [AZD-8186] to Nc1cc(C(F)(F)F)c(-c2cc(N3CCOCC3)nc(N3CCOCC3)n2)cn1 [buparlisib], the “CTG-3D luminescence at 96 h” value falls from 2.04 to 1.12.

Compared with CC(=O)c1c(C)c2cnc(Nc3ccc(N4CCNCC4)cn3)nc2n(C2CCCC2)c1=O [palbociclib], CCOc1ccn(-c2ccc(F)cc2)c(=O)c1C(=O)Nc1ccc(Oc2ccnc(N)c2Cl)c(F)c1 [ASLAN002] is higher in “CTG-3D luminescence at 96 h” value: 0.919 for the first, 1.46 for the second.

For CS(=O)(=O)CCNCc1ccc(-c2ccc3ncnc(Nc4ccc(OCc5cccc(F)c5)c(Cl)c4)c3c2)o1 [lapatinib], the “CTG-3D luminescence at 96 h” value was 2.25.

Same assay, conditions: 1 µM; days in culture: 202

First: CC(C)n1nc(-c2ccc3oc(N)nc3c2)c2c(N)ncnc21 [sapanisertib]
Second: Cc1c(CN2CCN(C(=O)[C@H](C)O)CC2)sc2c(N3CCOCC3)nc(-c3cnc(N)nc3)nc12 [apitolisib]
The “CTG-3D luminescence at 96 h” value of the first is higher: 0.515 for the first, 0.494 for the second.

First: C[C@@H](Nc1cc(F)cc(F)c1)c1cc(C(=O)N(C)C)cc2c(=O)cc(N3CCOCC3)oc12 [AZD-8186]
Second: Nc1cc(C(F)(F)F)c(-c2cc(N3CCOCC3)nc(N3CCOCC3)n2)cn1 [buparlisib]
The “CTG-3D luminescence at 96 h” value of the first is higher: 0.84 for the first, 0.649 for the second.

Compared with CC(=O)c1c(C)c2cnc(Nc3ccc(N4CCNCC4)cn3)nc2n(C2CCCC2)c1=O [palbociclib], CCOc1ccn(-c2ccc(F)cc2)c(=O)c1C(=O)Nc1ccc(Oc2ccnc(N)c2Cl)c(F)c1 [ASLAN002] is lower in “CTG-3D luminescence at 96 h” value: 1.7 for the first, 0.701 for the second.

CS(=O)(=O)CCNCc1ccc(-c2ccc3ncnc(Nc4ccc(OCc5cccc(F)c5)c(Cl)c4)c3c2)o1 [lapatinib] was tested, and the “CTG-3D luminescence at 96 h” value was 0.917.

Same assay, conditions: 1 µM; days in culture: 231

Compared with CC(C)n1nc(-c2ccc3oc(N)nc3c2)c2c(N)ncnc21 [sapanisertib], Cc1c(CN2CCN(C(=O)[C@H](C)O)CC2)sc2c(N3CCOCC3)nc(-c3cnc(N)nc3)nc12 [apitolisib] is lower in “CTG-3D luminescence at 96 h” value: 0.589 for the first, 0.577 for the second.

Compared with C[C@@H](Nc1cc(F)cc(F)c1)c1cc(C(=O)N(C)C)cc2c(=O)cc(N3CCOCC3)oc12 [AZD-8186], Nc1cc(C(F)(F)F)c(-c2cc(N3CCOCC3)nc(N3CCOCC3)n2)cn1 [buparlisib] is lower in “CTG-3D luminescence at 96 h” value: 1.32 for the first, 0.751 for the second.

Going from CC(=O)c1c(C)c2cnc(Nc3ccc(N4CCNCC4)cn3)nc2n(C2CCCC2)c1=O [palbociclib] to CCOc1ccn(-c2ccc(F)cc2)c(=O)c1C(=O)Nc1ccc(Oc2ccnc(N)c2Cl)c(F)c1 [ASLAN002], the “CTG-3D luminescence at 96 h” value rises from 1.09 to 1.25.

In the case of CS(=O)(=O)CCNCc1ccc(-c2ccc3ncnc(Nc4ccc(OCc5cccc(F)c5)c(Cl)c4)c3c2)o1 [lapatinib], the “CTG-3D luminescence at 96 h” value is reported as 1.44.

Same assay, conditions: 1 µM; days in culture: 254

Compared with CC(C)n1nc(-c2ccc3oc(N)nc3c2)c2c(N)ncnc21 [sapanisertib], Cc1c(CN2CCN(C(=O)[C@H](C)O)CC2)sc2c(N3CCOCC3)nc(-c3cnc(N)nc3)nc12 [apitolisib] is higher in “CTG-3D luminescence at 96 h” value: 0.518 for the first, 0.795 for the second.

First: C[C@@H](Nc1cc(F)cc(F)c1)c1cc(C(=O)N(C)C)cc2c(=O)cc(N3CCOCC3)oc12 [AZD-8186]
Second: Nc1cc(C(F)(F)F)c(-c2cc(N3CCOCC3)nc(N3CCOCC3)n2)cn1 [buparlisib]
The “CTG-3D luminescence at 96 h” value of the first is lower: 0.901 for the first, 1.08 for the second.

First: CC(=O)c1c(C)c2cnc(Nc3ccc(N4CCNCC4)cn3)nc2n(C2CCCC2)c1=O [palbociclib]
Second: CCOc1ccn(-c2ccc(F)cc2)c(=O)c1C(=O)Nc1ccc(Oc2ccnc(N)c2Cl)c(F)c1 [ASLAN002]
The “CTG-3D luminescence at 96 h” value of the first is lower: 1.17 for the first, 1.85 for the second.

In the case of CS(=O)(=O)CCNCc1ccc(-c2ccc3ncnc(Nc4ccc(OCc5cccc(F)c5)c(Cl)c4)c3c2)o1 [lapatinib], the “CTG-3D luminescence at 96 h” value is reported as 1.02.

Same assay, conditions: 10 µM; days in culture: 202

In the case of CC(C)n1nc(-c2ccc3oc(N)nc3c2)c2c(N)ncnc21 [sapanisertib], the “CTG-3D luminescence at 96 h” value is reported as 0.634.
